Our source for the activation and EC50 values is patent US10208030B2, “GPR119 agonist compounds” (Mankind Pharma Ltd., priority 2016, dated 2019).

For one assay, the target named is T1, hGPR119 (Homo sapiens, UniProt Q8TDV5).
T1 construct: expressed in transfected cells; host or cells: CHO cells (CHO-hGPR119)
T1 sequence (Q8TDV5 1-335): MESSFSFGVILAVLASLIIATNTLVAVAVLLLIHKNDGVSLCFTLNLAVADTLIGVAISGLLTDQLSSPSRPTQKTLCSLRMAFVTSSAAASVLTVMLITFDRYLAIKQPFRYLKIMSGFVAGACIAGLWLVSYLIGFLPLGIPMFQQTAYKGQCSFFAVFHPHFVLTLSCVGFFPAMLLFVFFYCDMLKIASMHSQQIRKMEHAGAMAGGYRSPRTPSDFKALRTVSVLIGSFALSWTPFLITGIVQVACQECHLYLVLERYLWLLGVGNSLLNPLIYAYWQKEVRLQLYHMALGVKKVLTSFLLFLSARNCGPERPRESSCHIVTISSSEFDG
Briefly: In vitro cyclic AMP assay (Cisbio HTRF) in CHO-hGPR119 cells. Type of assay: cell-based. The settings on record: 1 h, cAMP, 1 μM, 60 min, read-out: Induction (% induction at 1 μM). As to the method: cAMP measurements were done using Cisbio dynamic 2 HTRF kit according to the manufacturer's protocol. Briefly, CHO-hGPR119 cells were plated at a cell density of 5000 cells/well/5 μl into a white small volume 384 well plate. The final concentrations of IBMX and DMSO used were 1 mM and 0.5% respectively. Cells were treated with various concentrations of the test compound for 60 min at room temperature. Cells were lysed by buffer containing Anti-cAMP antibody and d2-cAMP reagents and incubated for 1 hour at room temperature. HTRF was measured at 337 nm excitation and emission wavelengths of 665 nm and 620 nm on a microplate reader (Flurostar, BMG Labtech). Graphpad prism software was utilized for EC50 determinations.
Background: Time-resolved FRET reads energy transfer from a long-lived donor to a nearby acceptor.
`CCCc1cnc(N2CCC(C(C)Oc3nn4cc(-c5ccc(C(=O)N(C)C)cc5)nc4s3)CC2)nc1` (stereo not drawn) [Compound 1049, N,N-dimethyl-4-(2-(1-(1-(5-propylpyrimidin-2-yl)piperidin-4-yl)ethoxy)imidazo[2,1-b][1,3,4]thiadiazol-6-yl)benzamide]: the activation at 1 µM was 55%.

In the case of `CC(C)c1noc(N2CCC(C(C)Oc3nn4cc(-c5ccncc5)nc4s3)CC2)n1` (stereo not drawn) [Compound 1050, 3-isopropyl-5-(4-(1-((6-(pyridin-4-yl)imidazo[2,1-b][1,3,4]thiadiazol-2-yl)oxy)ethyl)piperidin-1-yl)-1,2,4-oxadiazole], the activation at 1 µM was 68%.

As for `CC(C)c1noc(C2CCN(c3nn4cc(-c5ccncc5)nc4s3)CC2)n1` [Compound 1051, 3-isopropyl-5-(1-(6-(pyridin-4-yl)imidazo[2,1-b][1,3,4]thiadiazol-2-yl)piperidin-4-yl)-1,2,4-oxadiazole], the activation at 1 µM worked out at 7%.

As to `CC(C)c1noc(C2CCN(c3nn4c(Cl)c(-c5ccncc5)nc4s3)CC2)n1` [Compound 1052, 5-(1-(5-chloro-6-(pyridin-4-yl)imidazo[2,1-b][1,3,4]thiadiazol-2-yl)piperidin-4-yl)-3-isopropyl-1,2,4-oxadiazole], the activation at 1 µM worked out at 12%.

On to `CC(C)c1noc(N2CCC(COc3nn4cc(-c5ccc(C#N)cc5)nc4s3)CC2)n1` [Compound 1053, 4-(2-((1-(3-isopropyl-1,2,4-oxadiazol-5-yl)piperidin-4-yl)methoxy)imidazo[2,1-b][1,3,4]thiadiazol-6-yl)benzonitrile], for which the activation at 1 µM was found to be 49%.

As to `CC(C)c1noc(N2CCC(COc3nn4cc(-c5ccncc5)nc4s3)CC2)n1` [Compound 1054, 3-isopropyl-5-(4-(((6-(pyridin-4-yl)imidazo[2,1-b][1,3,4]thiadiazol-2-yl)oxy)methyl)piperidin-1-yl)-1,2,4-oxadiazole], the activation at 1 µM was 16%.

In the case of `CC(C)c1noc(N2CCC(C(C)Oc3nn4cc(-c5ccc(S(C)(=O)=O)nc5)nc4s3)CC2)n1` (stereo not drawn) [Compound 1055, 3-isopropyl-5-(4-(1-((6-(6-(methylsulfonyl)pyridin-3-yl)imidazo[2,1-b][1,3,4]thiadiazol-2-yl)oxy)ethyl)piperidin-1-yl)-1,2,4-oxadiazole], the activation at 1 µM is 76%.

Consider `CCc1cnc(N2CCC(C(C)Oc3nn4cc(-c5ccncc5)nc4s3)CC2)nc1` (stereo not drawn) [Compound 1056, 2-(1-(1-(5-ethylpyrimidin-2-yl)piperidin-4-yl)ethoxy)-6-(pyridin-4-yl)imidazo[2,1-b][1,3,4]thiadiazole], for which the activation at 1 µM worked out at 73%.

Consider `CC(C)c1noc(N2CCC(C(C)Oc3nn4cc(-c5ccc(S(C)(=O)=O)cc5)nc4s3)CC2)n1` (stereo not drawn) [Compound 1057, 3-isopropyl-5-(4-(1-((6-(4-(methylsulfonyl)phenyl)imidazo[2,1-b][1,3,4]thiadiazol-2-yl)oxy)ethyl)piperidin-1-yl)-1,2,4-oxadiazole], for which the activation at 1 µM came out at 82%.

As to `CC(C)c1noc(N2CCC([C@@H](C)Oc3nn4cc(-c5ccc(S(C)(=O)=O)nc5)nc4s3)CC2)n1` [Compound 1058, (R)-3-isopropyl-5-(4-(1-((6-(6-(methylsulfonyl)pyridin-3-yl)imidazo[2,1-b][1,3,4]thiadiazol-2-yl)oxy)ethyl)piperidin-1-yl)-1,2,4-oxadiazole], the activation at 1 µM stood at 73%.

Turning to `CC(C)c1noc(N2CCC([C@@H](C)Oc3nn4cc(-c5ccc(S(C)(=O)=O)cc5)nc4s3)CC2)n1` [Compound 1060, (R)-3-isopropyl-5-(4-(1-((6-(4-(methylsulfonyl)phenyl)imidazo[2,1-b][1,3,4]thiadiazol-2-yl)oxy)ethyl)piperidin-1-yl)-1,2,4-oxadiazole], the activation at 1 µM stood at 65%.

On to `CC(C)c1noc(N2CCC(C(C)Oc3nn4c(F)c(-c5ccc(S(C)(=O)=O)cc5)nc4s3)CC2)n1` (stereo not drawn) [Compound 1061, 5-(4-(1-((5-fluoro-6-(4-(methylsulfonyl)phenyl)imidazo[2,1-b][1,3,4]thiadiazol-2-yl)oxy)ethyl)piperidin-1-yl)-3-isopropyl-1,2,4-oxadiazole], for which the activation at 1 µM was 79%.

As for `CCc1cnc(N2CCC([C@@H](C)Oc3nn4cc(-c5ccc(S(C)(=O)=O)cc5)nc4s3)CC2)nc1` [Compound 1062, (R)-2-(1-(1-(5-ethylpyrimidin-2-yl)piperidin-4-yl)ethoxy)-6-(4-(methylsulfonyl)phenyl)imidazo[2,1-b][1,3,4]thiadiazole], the activation at 1 µM was determined as 78%.

`CC(C)c1noc(N2CCC([C@@H](C)Oc3nn4cc(-c5ccnc(F)c5)nc4s3)CC2)n1` [Compound 1065, (R)-5-(4-(1-((6-(2-fluoropyridin-4-yl)imidazo[2,1-b][1,3,4]thiadiazol-2-yl)oxy)ethyl)piperidin-1-yl)-3-isopropyl-1,2,4-oxadiazole]: the activation at 1 µM came out at 62%.

As for `CC(C)c1noc(N2CCC([C@@H](C)Oc3nn4c(F)c(-c5ccc(S(C)(=O)=O)cc5)nc4s3)CC2)n1` [Compound 1066, (R)-5-(4-(1-((5-fluoro-6-(4-(methylsulfonyl)phenyl)imidazo[2,1-b][1,3,4]thiadiazol-2-yl)oxy)ethyl)piperidin-1-yl)-3-isopropyl-1,2,4-oxadiazole], the activation at 1 µM was determined as 72%.

On to `CC(C)c1noc(N2CCC([C@H](C)Oc3nn4cc(-c5cc[n+]([O-])cc5)nc4s3)CC2)n1` [Compound 1068, (S)-4-(2-(1-(1-(3-isopropyl-1,2,4-oxadiazol-5-yl)piperidin-4-yl)ethoxy)imidazo[2,1-b][1,3,4]thiadiazol-6-yl)pyridine 1-oxide], for which the activation at 1 µM was found to be 59%.

On to `CC(Oc1nn2cc(-c3ccc(S(C)(=O)=O)cc3)nc2s1)C1CCN(c2ncc(Cl)cn2)CC1` (stereo not drawn) [Compound 1069, 2-(1-(1-(5-chloropyrimidin-2-yl)piperidin-4-yl)ethoxy)-6-(4-(methylsulfonyl)phenyl)imidazo[2,1-b][1,3,4]thiadiazole], for which the activation at 1 µM is 65%.

As to `CC(C)c1cnc(N2CCC(C(C)Oc3nn4cc(-c5ccc(S(C)(=O)=O)cc5)nc4s3)CC2)nc1` (stereo not drawn) [Compound 1070, 2-(1-(1-(5-isopropylpyrimidin-2-yl)piperidin-4-yl)ethoxy)-6-(4-(methylsulfonyl)phenyl)imidazo[2,1-b][1,3,4]thiadiazole], the activation at 1 µM turned out to be 55%.

`CC(Oc1nn2cc(-c3ccc(S(C)(=O)=O)cc3)nc2s1)C1CCN(c2nc(C(F)(F)F)no2)CC1` (stereo not drawn) [Compound 1073, 2-(1-(1-(3-(trifluoromethyl)-1,2,4-oxadiazol-5-yl)piperidin-4-yl)ethoxy)-6-(4-(methylsulfonyl)phenyl)imidazo[2,1-b][1,3,4]thiadiazole]: the activation at 1 µM was 33%.

As to `CC(C)c1noc(N2CCC(C(C)Oc3nn4cc(-c5cnc(S(C)(=O)=O)nc5)nc4s3)CC2)n1` (stereo not drawn) [Compound 1074, 2-(1-(1-(3-isopropyl-1,2,4-oxadiazol-5-yl)piperidin-4-yl)ethoxy)-6-(2-(methylsulfonyl)pyrimidin-5-yl)imidazo[2,1-b][1,3,4]thiadiazole], the activation at 1 µM turned out to be 44%.

For the molecule `CC(C)c1noc(N2CCC(C(C)Oc3nn4cc(-c5ccc(Cl)nc5)nc4s3)CC2)n1` (stereo not drawn) [Compound 1075, 2-(1-(1-(3-isopropyl-1,2,4-oxadiazol-5-yl)piperidin-4-yl)ethoxy)-6-(6-chloropyridin-3-yl)imidazo[2,1-b][1,3,4]thiadiazole], the activation at 1 µM was 64%.

For `C[C@@H](Oc1nn2cc(-c3ccc(S(C)(=O)=O)cc3)nc2s1)C1CCN(c2nc(C(F)(F)F)no2)CC1` [Compound 1076, 2-((R)-1-(1-(3-(trifluoromethyl)-1,2,4-oxadiazol-5-yl)piperidin-4-yl)ethoxy)-6-(4-(methylsulfonyl)phenyl)imidazo[2,1-b][1,3,4]thiadiazole], the activation at 1 µM is 15%.

Take `C[C@H](Oc1nn2cc(-c3ccc(S(C)(=O)=O)cc3)nc2s1)C1CCN(c2nc(C(F)(F)F)no2)CC1` [Compound 1077, 2-((S)-1-(1-(3-(trifluoromethyl)-1,2,4-oxadiazol-5-yl)piperidin-4-yl)ethoxy)-6-(4-(methylsulfonyl)phenyl)imidazo[2,1-b][1,3,4]thiadiazole]: the activation at 1 µM was 33%.

For `CC(C)c1noc(N2CCC([C@H](C)Oc3nn4cc(-c5ccc(S(C)(=O)=O)c(F)c5)nc4s3)CC2)n1` [Compound 1078, 2-((S)-1-(1-(3-isopropyl-1,2,4-oxadiazol-5-yl)piperidin-4-yl)ethoxy)-6-(3-fluoro-4-(methylsulfonyl)phenyl)imidazo[2,1-b][1,3,4]thiadiazole], the activation at 1 µM was 54%.

For `CC(C)c1noc(N2CCC(C(C)Oc3nn4cc(-c5cnc(Cl)cn5)nc4s3)CC2)n1` (stereo not drawn) [Compound 1079, 2-(1-(1-(3-isopropyl-1,2,4-oxadiazol-5-yl)piperidin-4-yl)ethoxy)-6-(5-chloropyrazin-2-yl)imidazo[2,1-b][1,3,4]thiadiazole], the activation at 1 µM was determined as 87%.

The assay is the same for the next values; noted with them: cAMP, class symbols, legend not given.
On to `CC(C)c1noc(N2CCC([C@@H](C)Oc3nn4cc(-c5ccc(S(C)(=O)=O)nc5)nc4s3)CC2)n1` [Compound 1058, (R)-3-isopropyl-5-(4-(1-((6-(6-(methylsulfonyl)pyridin-3-yl)imidazo[2,1-b][1,3,4]thiadiazol-2-yl)oxy)ethyl)piperidin-1-yl)-1,2,4-oxadiazole], for which the EC50 result is “A+”.

Consider `CC(C)c1noc(N2CCC([C@@H](C)Oc3nn4cc(-c5ccc(S(C)(=O)=O)cc5)nc4s3)CC2)n1` [Compound 1060, (R)-3-isopropyl-5-(4-(1-((6-(4-(methylsulfonyl)phenyl)imidazo[2,1-b][1,3,4]thiadiazol-2-yl)oxy)ethyl)piperidin-1-yl)-1,2,4-oxadiazole], for which the EC50 result was “A+”.

Take `CCc1cnc(N2CCC([C@@H](C)Oc3nn4cc(-c5ccc(S(C)(=O)=O)cc5)nc4s3)CC2)nc1` [Compound 1062, (R)-2-(1-(1-(5-ethylpyrimidin-2-yl)piperidin-4-yl)ethoxy)-6-(4-(methylsulfonyl)phenyl)imidazo[2,1-b][1,3,4]thiadiazole]: the EC50 entry was “A+”.

For `CC(C)c1noc(N2CCC([C@@H](C)Oc3nn4c(F)c(-c5ccc(S(C)(=O)=O)cc5)nc4s3)CC2)n1` [Compound 1066, (R)-5-(4-(1-((5-fluoro-6-(4-(methylsulfonyl)phenyl)imidazo[2,1-b][1,3,4]thiadiazol-2-yl)oxy)ethyl)piperidin-1-yl)-3-isopropyl-1,2,4-oxadiazole], the EC50 result is recorded as “A+”.

Turning to `CC(Oc1nn2cc(-c3ccc(S(C)(=O)=O)cc3)nc2s1)C1CCN(c2ncc(Cl)cn2)CC1` (stereo not drawn) [Compound 1069, 2-(1-(1-(5-chloropyrimidin-2-yl)piperidin-4-yl)ethoxy)-6-(4-(methylsulfonyl)phenyl)imidazo[2,1-b][1,3,4]thiadiazole], the EC50 entry is “A+”.
